In data set [1] the test system is HL-60. Put plainly: Antiinflammatory activity in human HL-60 derived macrophage-like cells assessed as inhibition of LPS-induced IL-6 production treated 30 mins before LPS stimulation measured after 24 hrs by ELISA. The format is functional, cell-based. (In general: In an ELISA, binding on a coated surface is turned into a signal by an enzyme label.)
In data set [2] the test system is HL-60. In words: Antiinflammatory activity in human HL-60 derived macrophage-like cells assessed as inhibition of LPS-induced IL-6 production at 50 uM treated 30 mins before LPS stimulation measured after 24 hrs by ELISA. The format is functional.
Data set [3] relates to HL-60. In words: Antiinflammatory activity in human HL-60 derived macrophage-like cells assessed as inhibition of LPS-induced TNFalpha production treated 30 mins before LPS stimulation measured after 24 hrs by ELISA. In kind it is functional, cell-based.
Data set [4] concerns HL-60. In words: Antiinflammatory activity in human HL-60 derived macrophage-like cells assessed as inhibition of LPS-induced TNFalpha production at 50 uM treated 30 mins before LPS stimulation measured after 24 hrs by ELISA. The format is functional.
For data set [5], the system named is HL-60. Put plainly: Cytotoxicity against human HL-60 derived macrophage-like cells at 50 uM after 1 hr by MTT assay. In kind it is cell-based. As to conditions: hl-60, 1 h. (In general: Tetrazolium dyes change colour on reduction, which living cells bring about.)

Molecules are shown by their SMILES.

What is called IC50 is the concentration needed to halve the response being measured. As a reminder, the inhibition is the percentage by which the read-out fell short of the control. Consider `Nc1nc(-c2cc(C(F)(F)F)cc(C(F)(F)F)c2)nc2nc3c(Cl)ccc(Cl)c3nc12`, for which the IC50 with HL-60 [1] is 22.9 µM; in the data set with HL-60 [3], 7.3 µM. The inhibition at 50 µM with HL-60 [2] was 100%; in the data set with HL-60 [4] it was 99.7%. The molecule further registered an Activity in the data set on HL-60 [5] of 0%.

On to `Nc1ccc(-c2nc(N)c3nc4c(Cl)ccc(Cl)c4nc3n2)cc1`, for which the concentration for half-maximal inhibition (IC50) in the data set with HL-60 [1] is 25.7 µM; in the data set with HL-60 [3], 36.2 µM. Besides, the inhibition at 50 µM in the data set on HL-60 [2] came to 85.1%; in the data set with HL-60 [4] it was 63.2%. The Activity in the data set on HL-60 [5] is on record as 15.7%.

Turning to `Cc1ccc(-c2nc(N)c3nc4c(Cl)ccc(Cl)c4nc3n2)cc1F`, the figures for the IC50 in the data set on HL-60 [1] and in the data set on HL-60 [3] were 26.5 µM and 5.8 µM, respectively. For the same molecule, the inhibition at 50 µM in the data set on HL-60 [2] was found to be 93%; with HL-60 [4], 80%. This molecule had an Activity in the data set with HL-60 [5] of 1.8%.

Take `Nc1nc(-c2ccc(C(F)(F)F)cc2)nc2nc3c(Cl)ccc(Cl)c3nc12`: the IC50 is 35.4 µM in the data set on HL-60 [1] and 8.7 µM in the data set on HL-60 [3]. Further, the inhibition at 50 µM was found to be 83% with HL-60 [2] and 67.2% in the data set with HL-60 [4]. The Activity in the data set with HL-60 [5] stood at 0%.

For the molecule `Cc1ccc(-c2nc(N)c3nc4c(Cl)ccc(Cl)c4nc3n2)cc1`, the IC50 is 25.2 µM with HL-60 [1] and 7.4 µM in the data set with HL-60 [3]. Moreover, the results for the inhibition at 50 µM in the data set on HL-60 [2] and in the data set on HL-60 [4] were 95.4% and 87.4%, respectively. This molecule gave an Activity with HL-60 [5] of 3.9%.

For `Nc1nc(-c2ccc(Cl)cc2)nc2nc3c(Cl)ccc(Cl)c3nc12`, the IC50 in the data set on HL-60 [1] was found to be 46.9 µM. For the same molecule, the inhibition at 50 µM with HL-60 [2] was found to be 54.3%; in the data set with HL-60 [4], 6.7%. For the same molecule, the Activity in the data set with HL-60 [5] turned out to be 2.5%.

On to `Nc1nc(-c2ccccc2)nc2nc3c(Cl)ccc(Cl)c3nc12`, for which the half-inhibitory concentration (IC50) with HL-60 [1] came to 34.4 µM; with HL-60 [3] it was 35.9 µM. In addition, the results for the inhibition at 50 µM with HL-60 [2] and with HL-60 [4] were 73.8% and 75.2%, respectively. This molecule gave an Activity in the data set on HL-60 [5] of 13%.

As to `Cc1cccc(-c2nc(N)c3nc4c(Cl)ccc(Cl)c4nc3n2)c1`, the IC50 with HL-60 [1] turned out to be 25.7 µM; in the data set with HL-60 [3] it was 6 µM. Further, the inhibition at 50 µM in the data set on HL-60 [2] is 95.1%; in the data set with HL-60 [4], 100%. Moreover, the Activity in the data set on HL-60 [5] was 0.2%.

Regarding `Nc1nc(-c2cccc([N+](=O)[O-])c2)nc2nc3c(Cl)ccc(Cl)c3nc12`, the inhibition at 50 µM stood at 41.3% in the data set with HL-60 [2] and 0% in the data set on HL-60 [4]. The molecule also returned an Activity in the data set with HL-60 [5] of 1.5%.

Turning to `C[S+]([O-])c1ccc(-c2nc(-c3ccncc3)c(-c3ccc(F)cc3)[nH]2)cc1` (stereo unspecified) [SB-203580], the inhibition at 50 µM with HL-60 [2] was 8.4%; in the data set with HL-60 [4], 68.1%. Further, the half-inhibitory concentration (IC50) with HL-60 [3] stood at 8.6 µM. The same molecule gave an Activity with HL-60 [5] of 0%.

For the origin of these results see ChEMBL document CHEMBL2406913, “First synthesis and biological evaluation of 4-amino-2-aryl-6,9-dichlorobenzo[g]pteridines as inhibitors of TNF-α and IL-6” (Eur J Med Chem, 2013).
